# In patent EP0786471A1, “Arthrichitin, a process for its production and its use” (HOECHST AKTIENGESELLSCHAFT, priority 1996, dated 1997):
# Experiments:
# [1] = system: Plasmopara viticola; experiment: in vivo activity against phytopathogenic fungi
# [2] = system: Phytophthora infestans; settings: in vivo
# [3] = system: Botrytis cinerea; experiment: in vivo activity against phytopathogenic fungi
# [4] = system: Pyricularia oryzae; settings: in vivo
# [5] = system: Erysiphe graminis; experiment: in vivo activity against phytopathogenic fungi
# [6] = system: Septoria nodorum; experiment: in vivo activity against phytopathogenic fungi
# [7] = system: Pseudocercosporella herpotrichoides; experiment: in vivo activity against phytopathogenic fungi
# [8] = system: Neurospora crassa strain SGF 18; experiment: modified screening method of detecting cell-wall active compounds; type: cell-based
# Method: Fermentation carried out for about 90 hours under submerged condition in shake flasks in order to achieve the maximum activity is particularly preferred. The progress of fermentation and the formation of Arthrichitin of the present invention can be detected by the modified screening method of detecting the cell-wall active compounds [J. Antibiotics, 39(11), 1620-1622, 1986] using the Neurospora crassa strain SGF 18.
# The production of Arthrichitin was monitored by using the modified screening method of detecting cell-wall active compounds [J. Antibiot., 39 (11), 1620-22, 1986] using the Neurospora crassa strain SGF 18 and growing it in a medium containing the following nutrients : soluble starch 1.5%; Yeast extract 0.4%; K2HPO4 0.1 %; MgSO4.7H2O 0.05%; D-Sorbitol 7.5% (Osmotic stabilizer); L-Sorbose 2.5% (Glucan synthesis inhibitor) and agar 1.5%.
# [9] = solubility (physico-chemical properties); type: physicochemical
# Excerpt: The physico-chemical properties of Arthrichitin are as follows : Appearance : Colorless solid Solubility : Soluble in methanol and dimethylsulfoxide; insoluble in petroleum ether, chloroform, ethylacetate and water. Molecular weight : 642 (FAB MS) (Matrix : 3-nitrobenzyl alcohol) Molecular formula : C33H46N4O9 (calculated : […]; [observed : m/z 643.3341 (M + H)^+ (HR FAB-MS; matrix : MeOH/NBA; internal reference : polyethylene glycol 600); calculated for C33H47N4O9 : 643.3345] Melting point : 245°C [α]D : + 24.12°C (c 0.475, MeOH) HPLC retention time : 5.4 minutes [4 x (30 + 100) mm 10µ ODS ®Hypersil column; mobile phase : 35% acetonitrile in 0.02 M aqueous sodium phosphate buffer, pH 7.0; flow rate : 1 ml/min.; UV detection : 220 nm] UV λmax (MeOH) : 247, 266, 310 nm; no shift with acid and alkali IR (KBr) : Figure 1 ^1H NMR (300 MHz, DMSO-d6) : Figure 2 ^13C NMR (75 MHz, DMSO-d6) : Figure 3
smiles,measurement,setting,value
CCCCCCCCC(C)C1OC(=O)C(CO)NC(=O)C(C(=O)c2c[nH]c3ccccc23)NC(=O)C(CCC(=O)O)NC(=O)C1C (centres unmarked) [Arthrichitin],activity against Plasmopara viticola,[1],very good activity
same,activity against Phytophthora infestans,[2],very good activity
same,activity against Botrytis cinerea,[3],very good activity
same,activity against Pyricularia oryzae,[4],very good activity
same,activity against Erysiphe graminis,[5],very good activity
same,activity against Septoria nodorum,[6],very good activity
same,activity against Pseudocercosporella herpotrichoides,[7],very good activity
same,activity as cell wall inhibiting compound,[8],activity as cell wall inhibiting compound
same,Solubility,[9]; chloroform,insoluble
same,Solubility,[9]; dimethylsulfoxide,Soluble
same,Solubility,[9]; ethylacetate,insoluble
same,Solubility,[9]; methanol,Soluble
same,Solubility,[9]; petroleum ether,insoluble
same,Solubility,[9]; water,insoluble
